This is an account of results in article PMC5120274, “Characterization of the Annonaceous acetogenin, annonacinone, a natural product inhibitor of plasminogen activator inhibitor-1” (Scientific Reports, 2016).

“And” between values parts separate entries of the source, which are not always exact repeats. Identical values can stand only once. Like-named read-outs stand apart in the source and are kept apart here. Where only a bound is given, the exact number is not on record here.

For assay [1], the target named is T1, PAI-1 (Homo sapiens, UniProt P05121).
T1 construct: purchased Stago BNL (Asnières sur Seine, FR)
T1 sequence (P05121 24-402): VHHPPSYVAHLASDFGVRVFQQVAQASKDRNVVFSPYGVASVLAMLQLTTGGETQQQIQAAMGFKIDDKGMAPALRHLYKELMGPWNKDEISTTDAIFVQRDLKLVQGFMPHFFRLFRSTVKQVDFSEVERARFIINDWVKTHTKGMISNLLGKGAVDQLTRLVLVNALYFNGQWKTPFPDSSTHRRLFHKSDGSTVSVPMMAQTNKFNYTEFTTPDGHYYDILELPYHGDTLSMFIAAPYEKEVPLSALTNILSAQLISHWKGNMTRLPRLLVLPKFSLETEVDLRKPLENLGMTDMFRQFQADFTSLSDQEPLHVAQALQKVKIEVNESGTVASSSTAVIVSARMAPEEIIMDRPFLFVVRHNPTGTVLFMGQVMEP
As to the kind of experiment: chromogenic screening assay: rate of tPA inhibition by PAI-1 (spectrozyme tPA hydrolysis). The class given is biochemical. The note with it: for kapp 50 μM (apparent rate constant of tPA inhibition by PAI-1): compound 50 μM, 1% DMSO, PAI-1 20 nM, tPA 10 nM, DMSO 1% control 4.4 ± 0.3 × 10^-3. The method, then:
Compounds from our local collection BioCIS and from the Prestwick compound library (Prestwick chemicals, Illkirch, FR), a collection containing only FDA approved drugs (around 4000 compounds in total) were tested in a chromogenic assay measuring the inhibition rate of tPA-catalyzed spectrozyme® tPA hydrolysis in the presence of PAI-1. Compounds (20 μL, final concentration 50 μM, 1% DMSO) were dispensed in a 96 well half area Greiner plate. A mixture containing 20 μL of PAI-1 (final concentration 20 nM) and 80 μL of Spectrozyme-tPA (final concentration 400 μM) was then added, and the mixture pre-incubated for 45 minutes at 37 °C. At the end of pre-incubation time, 90 μL of the mixture were added to another 96 well half area plate containing 10 μL tPA (final concentration 10 nM). The kinetic was then measured at 405 nm for 45 min at 37 °C in an Envision microplate reader. Progress curves were fitted using the pseudo first order equation to determine the apparent rate constant k.

In assay [2] the test system is vitronectin-bound PAI-1. Conditions: cited from earlier work.
The target in assay [3] is T1, PAI-1. As to the kind of experiment: thromboelastography (TEG) on pooled human plasma with tPA and PAI-1. In kind it is biochemical. The note with it: compound 50 μM, tPA 9 nM + PAI-1 22 nM. As to the method:
20 μL of CaCl2 (0.2 M), 10 μL of PAI-1 (final concentration 22 nM) and 10 μL of tested compounds were added in a TEG cup and pre-incubated for 20 min at room temperature. On the other hand, 1 mL of pooled citrated normal human plasma (pool of at least 10 healthy donors) was added to a vial containing 20 μL of Kaolin. 680 μl of the plasma/Kaolin mixture were then added to 20 μL of tPA (final concentration 9 nM). At the end of pre-incubation time, 320 μL of the plasma/tPA/kaolin mixture were transferred into the TEG cup and the thromboelastogram measured.

Setting [4] is: chromogenic screening assay, without vitronectin, mean ± SEM, n = 3, read-out: IC50.

The term IC50 denotes the concentration that inhibits the measured activity by half. In assay [1], `CCCCCCCCCCCC[C@@H](O)[C@H]1CC[C@H]([C@H](O)CCCC[C@H](O)CCCCC[C@@H](O)CC2=CC(C)OC2=O)O1` (stereo partly shown) [Annonacine] yielded an IC50 of 6 ± 3 µM. Besides, in assay [1] (mean ± SEM, n = 3), the “kapp 50 μM (apparent rate constant of tPA inhibition by PAI-1)” value is 6.4 ± 0.4 × 10^-4 s^-1.
The matching figures for `CCCCCCCCCCCC[C@@H](O)[C@H]1CC[C@H]([C@H](O)CCCC[C@H](O)CCCCCC2CC(CC(C)=O)C(=O)O2)O1` (stereo partly shown) [Isoannonacine]: greater than 50 µM and 1.1 ± 0.1 × 10^-3 s^-1.
As to `CCCCCCCCCC[C@H](O)[C@H]1CC[C@H]([C@H]2CC[C@H]([C@H](O)CCCCCCCCCCC3CC(CC(C)=O)C(=O)O3)O2)O1` (stereo partly shown) [Isorolliniastatin-2], the IC50 in assay [1] (setting [4]) is 10 ± 2 µM. For the same molecule, the “kapp 50 μM (apparent rate constant of tPA inhibition by PAI-1)” value in assay [1] (mean ± SEM, n = 3) was 8.5 ± 0.6 × 10^-4 s^-1.
Regarding `CCCCCc1c(-c2ccc3cc(OCc4nnn[nH]4)ccc3c2)n(Cc2ccccc2)c2ccccc12` [PAI-749], in assay [2], the “activity against PAI-1 bound to vitronectin” value is “devoid of activity”.
Take `CCCCCCCCCC[C@H](O)[C@H]1CC[C@H]([C@H]2CC[C@H]([C@H](O)CCCCCCCCCCC(O)CC3=C[C@H](C)OC3=O)O2)O1` (stereo partly shown) [Rolliniastatin-2]: the IC50 in assay [1] (setting [4]) was determined as 19 ± 1 µM. Besides, in assay [1] (mean ± SEM, n = 3), the “kapp 50 μM (apparent rate constant of tPA inhibition by PAI-1)” value was 7.5 ± 0.5 × 10^-4 s^-1.
Regarding `O=C(O)C(=O)c1cn(Cc2ccccc2)c2ccc(-c3ccc(OC(F)(F)F)cc3)cc12` [Tiplaxtinin, reference compound], in assay [2], the “activity against PAI-1 bound to vitronectin” value is “devoid of activity” and the “activity against vitronectin-bound PAI-1” value is “inactive”. Besides, in assay [3], the Angle came out at 66.2 °, the “K (clot formation time)” value came to 1.8 min, the “MA (maximal amplitude)” value is recorded as 24.5 mm and the “R (clotting time)” value turned out to be 7 min. For the same molecule, the “LY30 (clot lysis 30 minutes after maximal amplitude)” value in assay [3] (tPA alone 94.3%, tPA + PAI-1 0%) was determined as 21.9%. Moreover, in assay [3] (tPA alone 96.8%, tPA + PAI-1 0%), the “LY60 (clot lysis 60 minutes after maximal amplitude)” value was 50% and 50.2%. In addition, in assay [1] (mean ± SEM, n = 3), the “kapp 50 μM (apparent rate constant of tPA inhibition by PAI-1)” value is 1.7 ± 0.3 × 10^-3 s^-1. Moreover, the “kapp 50 μM (apparent rate constant of tPA inhibition by PAI-1)” value in assay [1] (mean ± SEM, n = 3, listed as tiplaxtinin) was 1.7 ± 0.3 × 10^−3 s^-1.
